Laboratory results from patent publication US5620958A, “Bradykinin antagonists” (Coretech, Inc., priority 1994, dated 1997).
Peptide text beside a SMILES is read from it.

How the values were obtained:
[1] = tested on: BK-induced hypotension; test: BK-induced hypotension in the anesthetized rat; format: in vivo; conditions: intravenous infusion 9 nmol kg^-1 min^-1; BK 4×10^-9 moles; FIG. 3
Protocol: After stopping the infusion of CP-0127, it can be seen that the responses to BK returned slowly being fully recovered after approximately 20 minutes.
Using anaesthetized rats, dose-response curves to BK were constructed and the ED50 identified (see FIG. 5a). The ED50 was then injected before and at 15 minute intervals after a single S.C. injection of CP-0127.

[2] = target: T1, BK2 receptor (Oryctolagus cuniculus, UniProt Q28642); test: rabbit jugular vein (RJV) in vitro, antagonism of BK; format: cell-based; conditions: Table A; recovery after washing
T1 construct: when administered to an intact animal; from tissue; host or cells: whole rabbit (systemic arterial blood pressure), LPS-pretreated
T1 sequence (Q28642 1-367): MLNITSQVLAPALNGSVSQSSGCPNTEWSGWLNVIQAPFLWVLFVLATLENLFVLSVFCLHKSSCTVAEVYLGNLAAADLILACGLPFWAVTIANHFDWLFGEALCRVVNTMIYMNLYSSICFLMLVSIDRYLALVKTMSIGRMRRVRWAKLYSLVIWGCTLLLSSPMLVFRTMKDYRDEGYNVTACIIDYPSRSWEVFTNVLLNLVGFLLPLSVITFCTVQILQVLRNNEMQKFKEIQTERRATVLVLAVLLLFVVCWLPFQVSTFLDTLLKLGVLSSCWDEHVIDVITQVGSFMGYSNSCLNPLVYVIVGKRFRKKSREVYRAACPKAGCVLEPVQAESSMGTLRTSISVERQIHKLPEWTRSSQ

[3] = target: T2, BK1 receptor (Oryctolagus cuniculus, UniProt P48748); test: rabbit aorta in vitro, reversal of des-Arg^9 -BK contraction; format: cell-based; conditions: Table G; negative log of molar concentration causing 50% reversal of 10^-7 M des-Arg^9 -BK contraction
T2 construct: when administered to an intact animal; from tissue; host or cells: whole rabbit (systemic arterial blood pressure), LPS-pretreated
T2 sequence (P48748 1-352): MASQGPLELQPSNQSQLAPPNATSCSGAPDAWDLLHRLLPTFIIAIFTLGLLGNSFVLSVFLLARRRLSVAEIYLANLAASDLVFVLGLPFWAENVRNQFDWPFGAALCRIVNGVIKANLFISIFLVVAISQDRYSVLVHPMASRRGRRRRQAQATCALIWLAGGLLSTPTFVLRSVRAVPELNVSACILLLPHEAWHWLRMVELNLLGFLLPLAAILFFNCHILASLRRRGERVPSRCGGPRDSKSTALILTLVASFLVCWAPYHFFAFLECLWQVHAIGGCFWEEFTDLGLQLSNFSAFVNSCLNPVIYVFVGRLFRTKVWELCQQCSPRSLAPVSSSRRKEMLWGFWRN

[4] = tested on: BK-induced vascular permeability; test: rabbit skin vascular permeability to intradermal BK (Evans Blue); format: in vivo
[5] = target: T1, BK2 receptor; test: blood pressure response to BK2 agonist in LPS-pretreated rabbits; format: in vivo, rabbit; set-up: key to OBSERVED ANTAGONIST ACTIVITY BK2: +: indicates complete blockade of the blood pressure response to the appropriate agonist; +/-: indicates partial blockade; -: indicates no observable effect at the dose indicated; conditions: rabbits given LPS (10 μg) 20 hours before
[6] = target: T3, NK2 receptor (Oryctolagus cuniculus, UniProt P79218); test: rabbit pulmonary artery, reduction of neurokinin A contraction; format: cell-based; conditions: Table R; negative log of molar concentration reducing sustained neurokinin A contraction by 50%; read-out: NK2 Rabbit Pulm Art log (converted)
T3 construct: reduce a sustained contractile response produced by neurokinin A by 50%; from tissue; host or cells: contractile tissue preparation (rabbit pulmonary artery per the earlier reading)
T3 sequence (P79218 1-384): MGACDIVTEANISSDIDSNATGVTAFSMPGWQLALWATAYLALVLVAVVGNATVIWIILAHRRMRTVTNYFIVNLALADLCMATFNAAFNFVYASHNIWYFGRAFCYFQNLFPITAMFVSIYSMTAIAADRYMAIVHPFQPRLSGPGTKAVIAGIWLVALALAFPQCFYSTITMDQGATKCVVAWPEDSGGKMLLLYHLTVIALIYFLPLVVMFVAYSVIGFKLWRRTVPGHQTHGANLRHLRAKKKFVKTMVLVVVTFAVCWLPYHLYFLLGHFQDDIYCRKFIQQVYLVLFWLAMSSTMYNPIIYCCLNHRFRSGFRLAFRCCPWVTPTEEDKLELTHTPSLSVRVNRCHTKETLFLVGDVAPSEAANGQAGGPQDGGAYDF
Protocol: The heterodimers thus obtained were tested for activity as heretofore described, the results being shown in Table R. In this Table -log [M] represents the negative log of the molar concentration of the antagonist necessary to reduce a sustained contractile response produced by neurokinin A by 50%.

[7] = target: T4, BK2 receptor (Rattus norvegicus, UniProt P25023); test: cell-based
T4 sequence (P25023 1-396): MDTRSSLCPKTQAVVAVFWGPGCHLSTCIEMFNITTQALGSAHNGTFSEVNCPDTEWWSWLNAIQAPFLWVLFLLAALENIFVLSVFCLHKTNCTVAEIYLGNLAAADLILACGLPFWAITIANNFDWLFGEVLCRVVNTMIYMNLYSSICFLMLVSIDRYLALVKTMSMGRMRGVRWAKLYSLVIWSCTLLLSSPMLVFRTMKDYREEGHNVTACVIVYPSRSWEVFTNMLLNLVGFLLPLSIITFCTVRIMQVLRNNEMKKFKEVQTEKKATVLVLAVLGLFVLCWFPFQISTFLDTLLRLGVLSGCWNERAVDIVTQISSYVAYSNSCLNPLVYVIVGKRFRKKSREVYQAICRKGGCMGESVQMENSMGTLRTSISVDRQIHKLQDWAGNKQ

Compound	inhibition of hypotensive response to BK [1]	RJV % REC [2] [%]	BK1 RABBIT AORTA IC50 [3]	inhibition of BK-induced skin vascular permeability ([4]; co-injected intradermally with BK, FIG. 2A)	inhibition of BK-induced skin vascular permeability ([4]; pre-injected 15 or 30 minutes before BK in the same site, FIGS. 2B, 2C)	OBSERVED ANTAGONIST ACTIVITY BK2 ([5]; 1 μg kg^-1 min^-1)	OBSERVED ANTAGONIST ACTIVITY BK2 ([5]; 3 μg kg^-1 min^-1)	OBSERVED ANTAGONIST ACTIVITY BK2 ([5]; 10 μg kg^-1 min^-1)	IC50 [6] [µM]	Kb [7] [µM]
CC(C)C[C@H](NC(=O)[C@@H](Cc1ccccc1)NC(=O)[C@H](CS)NC(=O)[C@H](Cc1ccccc1)NC(=O)CNC(=O)[C@@H]1C[C@@H](O)CN1C(=O)[C@@H]1CCCN1C(=O)[C@H](CCCNC(=N)N)NC(=O)[C@H](N)CCCNC(=N)N)C(=O)N[C@@H](CCCNC(=N)N)C(=O)O [CP-0126] (HELM PEPTIDE1{[dR].R.P.[Hyp].G.F.C.[dF].L.R}$$$$V2.0)	almost totally ineffective	60	Inactive	more potent than CP-0127	significantly less effective	+	+	+	–	–
CC(C)C[C@H](NC(=O)[C@@H](Cc1ccccc1)NC(=O)[C@H](CSC1CC(=O)N(CCCCCCN2C(=O)CC(SC[C@H](NC(=O)[C@@H](Cc3c[nH]c4ccccc34)NC(=O)[C@@H](Cc3c[nH]c4ccccc34)NC(=O)[C@@H](NC(=O)[C@@H](Cc3c[nH]c4ccccc34)NC(=O)[C@H](Cc3ccc(O)cc3)NC(=O)[C@@H](N)CC(=O)O)C(C)C)C(N)=O)C2=O)C1=O)NC(=O)[C@H](Cc1ccccc1)NC(=O)CNC(=O)[C@@H]1C[C@@H](O)CN1C(=O)[C@@H]1CCCN1C(=O)[C@H](CCCNC(=N)N)NC(=O)[C@H](N)CCCNC(=N)N)C(=O)N[C@@H](CCCNC(=N)N)C(=O)O (stereo partly drawn) [CP-0417] (HELM PEPTIDE1{[dR].R.P.[Hyp].G.F.C.[dF].L.R}|PEPTIDE2{D.Y.[dW].V.[dW].[dW].C.[am]}|CHEM1{[O=C1CC([*:1])C(=O)N1CCCCCCN1C(=O)CC([*:2])C1=O]}$PEPTIDE1,CHEM1,7:R3-1:R1|PEPTIDE2,CHEM1,7:R3-1:R2$$$V2.0)	–	–	–	–	–	–	–	–	2.51	0.01
CC(C)C[C@H](NC(=O)[C@@H](Cc1ccccc1)NC(=O)[C@H](CSC1CC(=O)N(CCCCCCN2C(=O)CC(SC[C@H](NC(=O)[C@@H](NC(=O)[C@@H](Cc3c[nH]c4ccccc34)NC(=O)[C@H](Cc3ccc(O)cc3)NC(=O)[C@@H](N)CC(=O)O)C(C)C)C(=O)N[C@H](Cc3c[nH]c4ccccc34)C(=O)N[C@@H](CCCNC(=N)N)C(N)=O)C2=O)C1=O)NC(=O)[C@H](Cc1ccccc1)NC(=O)CNC(=O)[C@@H]1C[C@@H](O)CN1C(=O)[C@@H]1CCCN1C(=O)[C@H](CCCNC(=N)N)NC(=O)[C@H](N)CCCNC(=N)N)C(=O)N[C@@H](CCCNC(=N)N)C(=O)O (stereo partly drawn) [CP-0415] (HELM PEPTIDE1{[dR].R.P.[Hyp].G.F.C.[dF].L.R}|PEPTIDE2{D.Y.[dW].V.C.[dW].R.[am]}|CHEM1{[O=C1CC([*:1])C(=O)N1CCCCCCN1C(=O)CC([*:2])C1=O]}$PEPTIDE1,CHEM1,7:R3-1:R1|PEPTIDE2,CHEM1,5:R3-1:R2$$$V2.0; N-terminus assumed)	–	–	–	–	–	–	–	–	6.31	0.0158
